The values that follow are results of earlier work, collected in US20090324709A1, “LIPOSOMAL FORMULATIONS” (Italfarmaco, S.A., priority 2004, published 2009).

SMILES strings stand for the structures. Where two headings read alike, the source gives them in different places.

For this data set the following is noted: for release of 5-FU: DSPC liposomes, six hours after preparation; for retention of acyclovir: neutral egg PC:cholesterol 15:1 DRV liposomes; for retention of iododeoxyuridine: egg PC:cholesterol 15:1 DRV liposomes.

With `O=c1[nH]cc(F)c(=O)[nH]1` [Example 5-FU, 5-fluorouracil], the “release of 5-FU” value was 10% (25° C.) and 50% (37° C.). Also, under “LUV DSPC liposomes, 60 minutes”, the 5-FU that escapes entry is “more than 75%”. For the same molecule, the “escape of 5-FU” value (LUV SPC, SPC:Cholesterol (1:1), SPC:Cholate (84:16), in saturated 5-FU solution, after 50 minutes) is recorded as “more than 50%”. The “release of the drug on eliminating the pH gradient” value (LUV liposomes actively charged through pH gradient (U.S. Pat. No. 6,083,530)) is reported as “immediate”. Further, the “release of initially encapsulated 5-FU” value (SPC:Cholate liposomes in solution without 5-FU, after 5 minutes) is recorded as 80%. For the same molecule, where the note is “multilamellar liposomes of sphingomyelin, cholesterol and dicetyl-phosphate, 40 hours at 25° C.”, the “5-FU initially encapsulated still inside the liposomes” value was 20%. The 5-FU remaining inside (type A liposome soy lecithin:cholesterol hemisuccinate:cholesterol (10:1:4), 28 days at room temperature) is listed as 10%. Also, where the note is “type B liposomes DPPC:cholesterol hemisuccinate:cholesterol (10:1:4), 42 days at room temperature”, the 5-FU released was 40%.
For `Nc1nc2c(ncn2COCCO)c(=O)[nH]1` [acyclovir], the retention of acyclovir is, setting by setting: (24 hours at 37° C.) 48%; (14 days at 4° C.) 44%.
For `O=c1[nH]c(=O)n([C@H]2C[C@H](O)[C@@H](CO)O2)cc1F` [floxuridine], under “MLV SM:CHOL:DCP 4.8:2.8:1, 40 hours at 25° C.”, the retention of floxuridine is on record as 70%.
As to `O=c1[nH]c(=O)n([C@H]2C[C@H](O)[C@@H](CO)O2)cc1I` [iododeoxyuridine], the retention of iododeoxyuridine runs as follows: (24 hours at 4° C.) 50%; (one hour at 37° C.) 20%.
On to `CN(Cc1cnc2nc(N)nc(N)c2n1)c1ccc(C(=O)N[C@@H](CCC(=O)O)C(=O)O)cc1` [methotrexate], for which the methotrexate retention was 70% (EPC liposomes, MLV and REV, 30 days at 4° C.); 40% (EPC liposomes, MLV and REV, 30 days at 25° C.); under 10% (EPC liposomes, MLV and REV, 30 days at 37° C.); 35% (MLV HSPC:CHOL and HSPC:CHOL:DCP, 8 hours at 37° C.).
